“Also recorded” adds a separate entry of the source.
Assays:
[1] = test system: white mongrel mice; assay: in vivo; conditions: mouse, ip
Experimental: (§1) Acute toxicity measurements were carried out in experiments on white mongrel mice upon intraperitoneal administration.

[2] = in vivo; conditions: mouse, ip
Experimental: as §1

[3] = test system: experimental necrosis of myocardium caused by introduction of adrenaline; assay: histological analysis of experimental necrosis of myocardium caused by adrenaline; assay type: in vivo, rats of the Wistar line
Experimental: A comparative study of the effects produced by the preparation according to the present invention and finoptin on an experimental necrosis of myocardium caused by introduction of adrenaline.
The experiments were carried out on rats of the Wistar line of gregarious keeping, both sexes, with a mass of 170 to 225 g. Each preparation was studied on a separate group of animals: (group of adrenaline-control, group of finoptin, group of the preparation according to the present invention). 72 rats were used in the experiments altogether. Injuries of myocardium were caused by way of a single-time subcutaneous administration of a 0.1% solution of adrenaline hydrochloride in the dose of 3 mg per kg of the rat's bodyweight. […] The preparation of this invention was administered subcutaneously, finoptin-per os. On the first day of the experiment the preparations were administered 30 minutes after injection of adrenaline hydrochloride. The experiment lasted for 19 days. Slaughters were effected on the 4th, 8th, 12th and 19th day of the experiment. The animals were decapitated. The heart was fixed in a 10% solution of neutral formalin and sealed in paraffin. Serial sections with the thickness of 5-6μ were coloured by Ehrlich hematoxylin-eosin. The state of vessels of myocardium, cardiomyocytes and interstitial tissue were evaluated by histological analysis.

[4] = test system: neoepinephrine model of infarction (focal necrosis) of myocardium in rats; assay: survival of rats with the neoepinephrine model of infarction; assay type: in vivo, rats of the Wistar line; conditions: 25 mg/kg subcutaneously, 7 days
Experimental: The study of the effect produced by the preparation according to the present invention on survival of animals with a neoepinephrine model of infarction was effected in comparison with the prior art preparations--obzidan and finoptin.
The formation of a neoepinephrine model of infarction (focal necrosis) of myocardium in rats was effected by way of an every-day subcutaneous administration of a 0.1% solution of neoepinephrine in the dose of 3 mg/kg for 7 days to rats of the Wistar line with a mass of 160-200 g. The test preparations were subcutaneously administered to the rats in the form of a 1.25% aqueous solution in the dose of 25 mg/kg 0.5 hour after injection of neoepinephrine also for 7 days.

[5] = 4th day, grade/number of animals (6)
[6] = 8th day, grade/number of animals (6)
[7] = 12th day, grade/number of animals (6)
[8] = 19th day, grade/number of animals (5)

## C[N+]1(C)CC(CC(=O)[O-])C(=O)N1 (stereo not drawn) [Preparation of this invention, (1,1-dimethyl-3-oxopyrazolin-1-io-4-yl)acetate]
[1]
  LD50: 2,239 (1,279-3,917) mg/kg
[2]
  LD50: 2240 mg/kg
[3]; 4th day, 25 mg/kg
  changes in cardiomyocytes: The granular-lumpy decomposition, necrosis of 3-5 cells is observed in a half of the investigated animals
  changes in interstitial tissue: The formation of granulomae on the side of the interstitial tissue is observed in all of the animals
  changes in vessels: the left ventricle capillaries are plethoric. In two cases insignificant infiltrations of the adventitia with lymphoid cells are observed
[3]; [5]
  edema (interstitial tissue): 0/6
  necrobiotic regions in the wall: 0/6
  necrosis of more than 5 cells: 0/6
  wall necrosis (vessels): 0/6
[3]; 4th, 8th, 12th and 19th day
  overall therapeutic effect on the myocardium: possesses a clearly manifested therapeutic effect allowing no significant changes in the myocardium, prevents the growth of the scarring tissue, contributes to the restoration of morphological structures of the myocardium
[3]; 8th day, 25 mg/kg
  changes in interstitial tissue: the formation of the scarring tissue is to a lesser extent than in the control group
  changes in vessels: the coronary vessels are without changes; in some cases insignificantly plethoric vessels and changes in cells in the form of swelling are observed
[3]; [6]
  diffusive round-cell infiltration: 0/6
  edema (interstitial tissue): 0/6
  infiltration of the adventitia with lymphoid cells: 0/6
  necrobiotic regions in the wall: 0/6
  necrosis of more than 5 cells: 0/6
  nuclei (pyknosis): 0/6
  wall necrosis (vessels): 0/6
[3]; 12th day, 25 mg/kg
  changes in cardiomyocytes: In comparison with the 8th day of the experiment eosinophilia and contructure type changes are decreased
  changes in interstitial tissue: the scarring tissue formation is more distinctly pronounced. These changes are substantially less revealed than the changes in the control group (adrenaline)
  changes in vessels: an insignificant plethora of the vessels is observed on the 12th day of the experiment
[3]; [7]
  Nuclei (pykhnosis): 0/6
  diffusive round-cell infiltration: 0/6
  edema (interstitial tissue): 0/6
  infiltration of the adventitia with lymphoid cells: 0/5
  necrobiotic regions with changes in the vessel wall: 0/6
  necrosis of more than 5 cells: 0/6
  wall necrosis (vessels): 0/6
[3]; 19th day, 25 mg/kg
  changes in cardiomyocytes: In half of the animals the granular-lumpy decomposition is less pronounced. Necrosis of individual cells and eosinophilia, as well as contructure type changes are also observed
  changes in connective tissue: a less pronounced formation of the scarring tissue is to be noted as compared to the control group
  changes in vessels: By the 19th day this phenomena becomes more clearly pronounced; also recorded: no changes were noticed on the part of the coronary vessels. The plethora of capillaries in the left ventricle wall is noticed
[3]; [8]
  changes in the endothelium: 0/5
  infiltration of the adventitia with lymphoid cells: 0/5
  necrobiotic regions with changes in the vessel wall: 0/5
  necrosis of more than 5 cells: 0/5
  nuclei (pyknosis): 0/5
[4]; after 19 days
  Percentage of survival: 92%
[4]; groups initially 12 animals
  Number of survived animals after 19 days: 11
